US8202856B2 (Merck Serono SA, priority 2007, dated 2012)
Structures can show the parent of a compound that is named as a salt.

Assays:
S1P3 receptor = S1P3 receptor (Homo sapiens, UniProt Q99500); assay: 35S-GTPγS binding, membranes from CHO cells expressing S1P3; assay type: biochemical; conditions: CHO cell membranes expressing S1P3
Experimental: Receptor binding assay: Membranes were prepared from CHO cells expressing S1P1 or S1P3 for use in ligand and 35S-GTPTS binding studies. Cells were suspended in 50 mM TRIS, pH 7.4, 2 mM EDTA, 250 mM Sucrose (buffer A) and 1× Complete protease inhibitor cocktail (Roche), and disrupted at 4° C. by nitrogen decompression using a cell disruption bomb (Parr Instrument). Following centrifugation at 1000 RPM for 10 min at 4° C., the supernatant was suspended in buffer A and centrifuged again at 19000 RPM for 60 min at 4° C. The pellet was then suspended in 10 mM HEPES, pH 7.4, 1 mM EDTA, 250 mM Sucrose (Buffer B), and 1× Complete EDTA-free protease inhibitor cocktail and homogenized using a potter. Membranes were flash frozen in liquid nitrogen and stored at −80° C. [33P]sphingosine 1-phosphate (3000 Ci/mmol; American Radiolabeled Chemicals, Inc.) was added to test compounds in DMSO. Membranes and WGA SPA beads (GE Healthcare) were added to give a final volume of 100 μl in 96-well plates with assay concentrations of […] [33P]sphingosine 1-phosphate (respectively for S1P1 or S1P3), 50 mM HEPES, pH 7.5, 5 mM MgCl2, 100 mM NaCl, 0.4% fatty acid-free BSA, 1-5 μg/well of proteins and 100 μg/well of WGA SPA beads. Binding was performed for 60 min at room temperature on a shaker and bound radioactivity was measured on a PerkinElmer 1450 MicroBeta counter. Specific binding was calculated by subtracting remaining radioactivity in the presence of 1000-fold excess of unlabeled S1P. Binding data were analyzed using the GraphPad Prism program.
Measurements of ^35S-GTPγS Binding: Membranes (1 to 10 μg protein) prepared as described above, were incubated in 96-well Scintiplates (PerkinElmer) with test compounds diluted in DMSO, in 180 μl of 20 mM HEPES, pH 7.4, 10 mM MgCl2, 2 μg/well Saponin, 0.2% fatty acid free BSA (Assay buffer), 140 mM NaCl and 1.7 μM GDP. The assay was initiated with the addition of 20 μl of 1.5 nM [35S]-GTPγS (1100 Ci/mmol; GE Healthcare) in assay buffer. After 60 min incubation at 30° C. on a shaker, plates were centrifuged for 10 min at 2000 RPM. Supernatant was discarded and membrane bound radioactivity was measured on a PerkinElmer 1450 MicroBeta counter. Triplicate samples were averaged and expressed as response relative to S1P activation in absence of compound (n=2).

S1P1 receptor = S1P1 receptor (Homo sapiens, UniProt P21453); assay: 35S-GTPγS binding, membranes from CHO cells expressing S1P1; assay type: biochemical; conditions: CHO cell membranes expressing S1P1
S1P1 receptor, sequence (P21453 whole entry): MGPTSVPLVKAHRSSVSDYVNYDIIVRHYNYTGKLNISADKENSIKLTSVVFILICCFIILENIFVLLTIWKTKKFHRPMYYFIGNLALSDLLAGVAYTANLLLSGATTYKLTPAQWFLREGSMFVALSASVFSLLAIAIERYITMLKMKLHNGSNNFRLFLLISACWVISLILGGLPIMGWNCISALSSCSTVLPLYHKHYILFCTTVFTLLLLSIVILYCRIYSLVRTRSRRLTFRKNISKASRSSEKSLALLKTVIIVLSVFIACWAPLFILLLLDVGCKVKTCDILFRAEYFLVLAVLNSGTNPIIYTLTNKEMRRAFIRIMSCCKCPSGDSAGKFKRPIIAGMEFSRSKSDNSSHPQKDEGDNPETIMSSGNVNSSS
Procedure, shortened: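 Membranes (1–10 μg) from CHO cells expressing the receptor were incubated with compound in 20 mM HEPES pH 7.4, 10 mM MgCl2, 140 mM NaCl, 1.7 μM GDP, saponin and 0.2% BSA. [35S]GTPγS (added at 1.5 nM) was then bound for 60 min at 30 °C. Membrane-bound radioactivity, averaged over triplicates, is expressed relative to S1P activation (n=2).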

S1P3 receptor, sequence (Q99500 whole entry): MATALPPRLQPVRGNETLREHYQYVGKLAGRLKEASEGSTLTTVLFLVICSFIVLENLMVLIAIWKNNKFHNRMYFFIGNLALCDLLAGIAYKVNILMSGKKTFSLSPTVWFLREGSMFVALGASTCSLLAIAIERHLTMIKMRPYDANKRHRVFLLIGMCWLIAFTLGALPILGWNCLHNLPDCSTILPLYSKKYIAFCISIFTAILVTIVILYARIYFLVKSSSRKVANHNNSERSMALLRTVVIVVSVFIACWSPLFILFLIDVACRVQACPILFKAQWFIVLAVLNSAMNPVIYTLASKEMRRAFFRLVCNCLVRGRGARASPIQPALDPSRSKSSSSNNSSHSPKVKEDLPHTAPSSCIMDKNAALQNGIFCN

EC50 (S1P3 receptor) [nM] | EC50 (S1P1 receptor) [nM] | SMILES
> 30000 | 211 | COCc1c(-c2nc(-c3ccccc3F)no2)nnn1-c1ccccc1F
> 10000 | 744 | COCc1c(-c2nc(-c3ccc(F)cc3F)no2)nnn1-c1ccccc1F [Example 8, 3-(2,4-Difluorophenyl)-5-[1-(2-fluorophenyl)-5-(methoxymethyl)-1H-1,2,3-triazole-4-yl]-1,2,4-oxadiazole]
 | 56 | O=C(O)C1CCCN(Cc2ccc(-c3noc(-c4nnn(-c5ccccc5F)c4-c4ccncc4)n3)cc2)C1 (stereo not drawn) [Example 158, 1-(4-{5-[1-(2-fluorophenyl)-5-pyridin-4-yl-1H-1,2,3-triazol-4-yl]-1,2,4-oxadiazol-3-yl}benzyl)piperidine-3-carboxylic acid]
 | 71 | Fc1ccccc1-n1nnc(-c2nc(-c3ccc(CN4CC[C@@H](F)C4)cc3)no2)c1-c1ccncc1 [Example 160, 4-{1-(2-fluorophenyl)-4-[3-(4-{[(3R)-3-fluoropyrrolidin-1-yl]methyl}phenyl)-1,2,4-oxadiazol-5-yl]-1H-1,2,3-triazol-5-yl}pyridine]
 | 545 | Fc1ccccc1-n1nnc(-c2nc(-c3ccc(CN4CCC(F)(F)CC4)cc3)no2)c1-c1ccncc1 [Example 161]
 | 211 | O=C(O)C1(NCc2ccc(-c3noc(-c4nnn(-c5ccccc5F)c4-c4ccncc4)n3)cc2)CC1 [Example 162, 1-(4-(5-(1-(2-fluorophenyl)-5-(pyridin-4-yl)-1H-1,2,3-triazol-4-yl)-1,2,4-oxadiazol-3-yl)benzylamino)cyclopropanecarboxylic acid]
 | 17 | CC(C)NCc1ccc(-c2noc(-c3nnn(-c4ccccc4F)c3-c3ccncc3)n2)cc1 [Example 165, N-(4-{5-[1-(2-fluorophenyl)-5-pyridin-4-yl-1H-1,2,3-triazol-4-yl]-1,2,4-oxadiazol-3-yl}benzyl)propan-2-amine]
 | 4 | Fc1ccccc1-n1nnc(-c2nc(-c3ccc(Cn4ccnc4)cc3)no2)c1-c1ccncc1 [Example 170, 4-(1-(2-fluorophenyl)-4-{3-[4-(1H-imidazol-1-ylmethyl)phenyl]-1,2,4-oxadiazol-5-yl}-1H-1,2,3-triazol-5-yl)pyridine]
 | 11 | Fc1ccccc1-n1nnc(-c2nc(-c3ccc(Cn4cccn4)cc3)no2)c1-c1ccncc1 [Example 171, 4-(1-(2-fluorophenyl)-4-{3-[4-(1H-pyrazol-1-ylmethyl)phenyl]-1,2,4-oxadiazol-5-yl}-1H-1,2,3-triazol-5-yl)pyridine]
 | 5 | Fc1ccccc1-n1nnc(-c2nc(-c3ccc(Cn4cncn4)cc3)no2)c1-c1ccncc1 [Example 172, 4-(1-(2-fluorophenyl)-4-{3-[4-(1H-1,2,4-triazol-1-ylmethyl)phenyl]-1,2,4-oxadiazol-5-yl}-1H-1,2,3-triazol-5-yl)pyridine]
 | 240 | COCc1c(-c2nc(-c3ccc(Cn4cccn4)cc3)no2)nnn1-c1ccccc1F [Example 173, 5-[1-(2-fluorophenyl)-5-(methoxymethyl)-1H-1,2,3-triazol-4-yl]-3-[4-(1H-pyrazol-1-ylmethyl)phenyl]-1,2,4-oxadiazole]
 | 67 | COCc1c(-c2nc(-c3ccc(Cn4ccnc4)cc3)no2)nnn1-c1ccccc1F [Example 175, 5-[1-(2-fluorophenyl)-5-(methoxymethyl)-1H-1,2,3-triazol-4-yl]-3-[4-(1H-imidazol-1-ylmethyl)phenyl]-1,2,4-oxadiazole]
 | 742 | O=C(O)[C@H]1CCC[C@H]1NCc1ccc(-c2noc(-c3nnn(-c4ccccc4F)c3-c3ccncc3)n2)cc1 [Example 177, (1S,2R)-2-[(4-{5-[1-(2-fluorophenyl)-5-pyridin-4-yl-1H-1,2,3-triazol-4-yl]-1,2,4-oxadiazol-3-yl}benzyl)amino]cyclopentanecarboxylic acid]

More lines, now with the values behind:

SMILES | EC50 (S1P3 receptor) [nM] | EC50 (S1P1 receptor) [nM]
CCc1c(-c2nc(-c3ccccc3)no2)nnn1-c1ccccc1F [Example 5, 5-[5-Ethyl-1-(2-fluorophenyl)-1H-1,2,3-triazole-4-yl]-3-phenyl-1,2,4-oxadiazole] | > 30000 | 862
CCc1c(-c2nc(-c3ccccc3F)no2)nnn1-c1ccccc1F [Example 6, 5-[5-Ethyl-1-(2-fluorophenyl)-1H-1,2,3-triazole-4-yl]-3-(2-fluorophenyl)-1,2,4-oxadiazole] | > 30000 | 561
CCc1c(-c2nc(-c3cc(F)ccc3F)no2)nnn1-c1ccccc1F [Example 7, 3-(2,5-Difluorophenyl)-5-[5-ethyl-1-(2-fluorophenyl)-1H-1,2,3-triazole-4-yl]-1,2,4-oxadiazole] | > 30000 | 
COCc1c(-c2nc(-c3cc(F)ccc3F)no2)nnn1-c1ccccc1F [Example 10, 3-(2,5-Difluorophenyl)-5-[1-(2-fluorophenyl)-5-(methoxymethyl)-1H-1,2,3-triazole-4-yl]-1,2,4-oxadiazole] | > 30000 | 45
Fc1ccc(-c2noc(-c3nnn(-c4ccccc4F)c3-c3ccccc3)n2)c(F)c1 [Example 11, 3-(2,4-Difluorophenyl)-5-[1-(2-fluorophenyl)-5-phenyl-1H-1,2,3-triazole-4-yl]-1,2,4-oxadiazole] | > 30000 | 53
O=C(O)[C@@H]1CCCN1Cc1ccc(-c2noc(-c3nnn(-c4ccccc4F)c3-c3ccncc3)n2)cc1 [Example 159, 1-(4-{5-[1(2-fluorophenyl)-5-pyridin-4-yl-1H-1,2,3-triazol-4-yl]-1,2,4-oxadiazol-3-yl}benzyl)-L-proline] |  | 574
O=C(O)[C@H]1CC[C@@H](NCc2ccc(-c3noc(-c4nnn(-c5ccccc5F)c4-c4ccncc4)n3)cc2)CC1 [Example 163] |  | 80
Fc1ccccc1-n1nnc(-c2nc(-c3ccc(CNC4CC4)cc3)no2)c1-c1ccncc1 [Example 164, N-(4-{5-[1-2-fluorophenyl)-5-pyridin-4-yl-1H-1,2,3-triazol-4-yl]-1,2,4-oxadiazol-3-yl}benzyl)cyclopropanamine formate] |  | 27
COCCN(C)Cc1ccc(-c2noc(-c3nnn(-c4ccccc4F)c3-c3ccncc3)n2)cc1 [Example 166, N-(4-(5-(1-(2-fluorophenyl)-5-(pyridin-4-yl)-1H-1,2,3-triazol-4-yl)-1,2,4-oxadiazol-3-yl)benzyl)-2-methoxy-N-methylethanamine] |  | 218
Fc1ccccc1-n1nnc(-c2nc(-c3ccc(CN4CC[C@H](F)C4)cc3)no2)c1-c1ccncc1 [Example 167, 4-{1-(2-fluorophenyl)-4-[3-(4-{[(3S)-3-fluoropyrrolidin-1-yl]methyl}phenyl)-1,2,4-oxadiazol-5-yl]-1H-1,2,3-triazol-5-yl}pyridine] |  | 15
O=C(O)[C@H]1CC[C@H](NCc2ccc(-c3noc(-c4nnn(-c5ccccc5F)c4-c4ccncc4)n3)cc2)CC1 [Example 168, (trans)-4-(4-(5-(1-(2-fluorophenyl)-5-(pyridin-4-yl)-1H-1,2,3-triazol-4-yl)-1,2,4-oxadiazol-3-yl)benzylamino)cyclohexanecarboxylic acid] |  | 16
O=C(O)[C@H]1CC[C@@H](NCc2ccc(-c3noc(-c4nnn(-c5ccccc5F)c4-c4ccncc4)n3)cc2)C1 [Example 169, (1S, 3R)-3-(4-(5-(1-(2-fluorophenyl)-5-(pyridin-4-yl)-1H-1,2,3-triazol-4-yl)-1,2,4-oxadiazol-3-yl)benzylamino)cyclopentanecarboxylic acid] |  | 8
CC(C)(NCc1ccc(-c2noc(-c3nnn(-c4ccccc4F)c3-c3ccncc3)n2)cc1)C(=O)O [Example 174, N-(4-{5-[1-(2-fluorophenyl)-5-pyridin-4-yl-1H-1,2,3-triazol-4-yl]-1,2,4-oxadiazol-3-yl}benzyl)-2-methylalanine] |  | 162
COCc1c(-c2nc(-c3ccc(Cn4cncn4)cc3)no2)nnn1-c1ccccc1F [Example 176, 5-[1-(2-fluorophenyl)-5-(methoxymethyl)-1H-1,2,3-triazol-4-yl]-3-[4-(1H-1,2,4-triazol-1-ylmethyl)phenyl]-1,2,4-oxadiazole] |  | 105
